Assay results: the NIST ThermoML archive (doi:10.1021/je060170c)

Experiment: xn = mol fraction of the nth substance listed
Settings: 101 kPa, Liquid; for viscosity: Anton Paar Stabinger viscometer

COc1ccccc1 [anisole] + Cc1cccc(C)c1
Settings	mass density [kg/m3]	speed of sound [m/s]	viscosity [mPa·s]
288.15 K, x1 = 0.1144	882.011	1369.2	0.696
288.15 K, x1 = 0.2566	899.519	1380.5	0.745
288.15 K, x1 = 0.3821	915.327	1390.9	0.799
288.15 K, x1 = 0.5034	930.924	1401	0.856
288.15 K, x1 = 0.6546	950.873	1414.1	0.933
288.15 K, x1 = 0.7535	964.193	1424	0.995
288.15 K, x1 = 0.8432	976.464	1432	1.049
288.15 K, x1 = 0.9133	986.213	1439.3	1.103
288.15 K, x1 = 0.9576	992.455	1445.2	1.149
288.15 K, x1 = 1	998.44	1449.1	1.188
293.15 K, x1 = 0.1144	877.742	1351	0.645
293.15 K, x1 = 0.2566	895.185	1362.2	0.688
293.15 K, x1 = 0.3821	910.905	1372.1	0.734
293.15 K, x1 = 0.5034	926.441	1381.4	0.783
293.15 K, x1 = 0.6546	946.321	1393.9	0.851
293.15 K, x1 = 0.7535	959.605	1402.8	0.908
293.15 K, x1 = 0.8432	971.843	1411.1	0.958
293.15 K, x1 = 0.9133	981.575	1418.4	1.008
293.15 K, x1 = 0.9576	987.755	1423.6	1.051
293.15 K, x1 = 1	993.651	1428.5	1.084
298.15 K, x1 = 0.1144	873.473	1328.5	0.607
298.15 K, x1 = 0.2566	890.874	1339.2	0.647
298.15 K, x1 = 0.3821	906.561	1349.8	0.687
298.15 K, x1 = 0.5034	922.056	1360.1	0.734
298.15 K, x1 = 0.6546	941.9	1373.5	0.798
298.15 K, x1 = 0.7535	955.192	1382.5	0.852
298.15 K, x1 = 0.8432	967.423	1391	0.899
298.15 K, x1 = 0.9133	977.136	1398.1	0.947
298.15 K, x1 = 0.9576	983.283	1403.1	0.988
298.15 K, x1 = 1	989.15	1408	1.017
303.15 K, x1 = 0.1144	869.172	1308	0.574
303.15 K, x1 = 0.2566	886.499	1318.7	0.604
303.15 K, x1 = 0.3821	902.126	1328.8	0.639
303.15 K, x1 = 0.5034	917.578	1339.1	0.677
303.15 K, x1 = 0.6546	937.368	1352.6	0.733
303.15 K, x1 = 0.7535	950.619	1362	0.782
303.15 K, x1 = 0.8432	962.844	1371	0.824
303.15 K, x1 = 0.9133	972.502	1378.3	0.868
303.15 K, x1 = 0.9576	978.641	1383.1	0.905
303.15 K, x1 = 1	984.372	1387.7	0.931
